In ChEMBL document CHEMBL1201862, “PubChem BioAssay data set” (2004):
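1) Cells in 96-well plates. 2) Compound, 48 h, 5 concentrations. 3) Linear interpolation between surrounding doses. 4) Unreached endpoint = highest concentration. GI50 = concentration required for 50% inhibition of growth.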 Calls of active or inactive are those of the source. Rule as the data show it: active = GI50 up to about 1.1 µM and inactive = higher.

Assays:
Experiment in all cases: NCI tumour cell line growth inhibition, 48 h
786-0 = tested on: 786-0
A498 = tested on: A498
A549 = tested on: A549
ACHN = tested on: ACHN
CCRF-CEM = tested on: CCRF-CEM
COLO 205 = tested on: COLO 205
DLD-1 = tested on: DLD-1
DMS-114 = tested on: DMS-114
EKVX = tested on: EKVX
HCC 2998 = tested on: HCC 2998
HCT-116 = tested on: HCT-116
HCT-15 = tested on: HCT-15
HOP-18 = tested on: HOP-18
HOP-62 = tested on: HOP-62
HOP-92 = tested on: HOP-92
HT-29 = tested on: HT-29
K562 = tested on: K562
KM-20L2 = tested on: KM-20L2
KM12 = tested on: KM12
LOX IMVI = tested on: LOX IMVI
LXFL 529 = tested on: LXFL 529
M14 = tested on: M14
M19-MEL = tested on: M19-MEL
MOLT-4 = tested on: MOLT-4
Malme-3M = tested on: Malme-3M
NCI-H226 = tested on: NCI-H226
NCI-H23 = tested on: NCI-H23
NCI-H460 = tested on: NCI-H460
NCI-H522 = tested on: NCI-H522
OVCAR-3 = tested on: OVCAR-3
OVCAR-4 = tested on: OVCAR-4
OVCAR-5 = tested on: OVCAR-5
OVCAR-8 = tested on: OVCAR-8
RXF 393 = tested on: RXF 393
SF-268 = tested on: SF-268
SF-295 = tested on: SF-295
SF-539 = tested on: SF-539
SK-MEL-28 = tested on: SK-MEL-28
SK-MEL-2 = tested on: SK-MEL-2
SK-MEL-5 = tested on: SK-MEL-5
SK-OV-3 = tested on: SK-OV-3
SN12C = tested on: SN12C
SNB-19 = tested on: SNB-19
SNB-75 = tested on: SNB-75
SNB-78 = tested on: SNB-78
SW-620 = tested on: SW-620
TK-10 = tested on: TK-10
U-251 = tested on: U-251
UACC-257 = tested on: UACC-257
UACC-62 = tested on: UACC-62
UO-31 = tested on: UO-31
XF498 = tested on: XF498
CAKI-1 = tested on: CAKI-1
HL-60 = tested on: HL-60
IGROV-1 = tested on: IGROV-1
RPMI-8226 = tested on: RPMI-8226
SR = tested on: SR

`C/C(=N\OCC(O)CNC(C)C)c1ccc2c(c1)NC(=O)CS2` (centres undefined) was tested, and the GI50 (786-0) was > 100 µM (inactive), the GI50 (A498) was > 100 µM (inactive) and the GI50 (A549) was > 100 µM (inactive). The GI50 (ACHN) was > 100 µM (inactive), the GI50 (CCRF-CEM) was > 100 µM (inactive) and the GI50 (COLO 205) was > 100 µM (inactive). The GI50 (DLD-1) was > 100 µM (inactive), the GI50 (DMS-114) was > 100 µM (inactive) and the GI50 (EKVX) was > 100 µM (inactive). For the same molecule, the GI50 (HCC 2998) was > 100 µM (inactive), the GI50 (HCT-116) was > 100 µM (inactive) and the GI50 (HCT-15) was > 100 µM. For the same molecule, the GI50 (HOP-18) was > 100 µM (inactive), the GI50 (HOP-62) was > 100 µM (inactive) and the GI50 (HOP-92) was 42.1 µM (inactive). The GI50 (HT-29) was > 100 µM (inactive), the GI50 (K562) was > 100 µM (inactive) and the GI50 (KM-20L2) was > 100 µM (inactive). The GI50 (KM12) was > 100 µM (inactive), the GI50 (LOX IMVI) was > 100 µM (inactive) and the GI50 (LXFL 529) was > 100 µM (inactive). For the same molecule, the GI50 (M14) was > 100 µM (inactive), the GI50 (M19-MEL) was > 100 µM (inactive) and the GI50 (MOLT-4) was > 100 µM (inactive). For the same molecule, the GI50 (Malme-3M) was > 100 µM (inactive), the GI50 (NCI-H226) was > 100 µM (inactive) and the GI50 (NCI-H23) was > 100 µM (inactive). The GI50 (NCI-H460) was > 100 µM (inactive), the GI50 (NCI-H522) was > 100 µM (inactive) and the GI50 (OVCAR-3) was > 100 µM (inactive). The GI50 (OVCAR-4) was > 100 µM (inactive), the GI50 (OVCAR-5) was > 100 µM (inactive) and the GI50 (OVCAR-8) was > 100 µM (inactive). For the same molecule, the GI50 (RXF 393) was > 100 µM (inactive), the GI50 (SF-268) was > 100 µM (inactive) and the GI50 (SF-295) was > 100 µM (inactive). For the same molecule, the GI50 (SF-539) was > 100 µM (inactive), the GI50 (SK-MEL-28) was > 100 µM (inactive) and the GI50 (SK-MEL-2) was > 100 µM (inactive). For the same molecule, the GI50 (SK-MEL-5) was > 100 µM (inactive), the GI50 (SK-OV-3) was > 100 µM (inactive) and the GI50 (SN12C) was > 100 µM (inactive). For the same molecule, the GI50 (SNB-19) was > 100 µM (inactive), the GI50 (SNB-75) was 50.6 µM (inactive) and the GI50 (SNB-78) was > 100 µM (inactive). For the same molecule, the GI50 (SW-620) was > 100 µM (inactive), the GI50 (TK-10) was > 100 µM (inactive) and the GI50 (U-251) was > 100 µM (inactive). The GI50 (UACC-257) was > 100 µM (inactive), the GI50 (UACC-62) was > 100 µM (inactive) and the GI50 (UO-31) was 91.2 µM (inactive). For the same molecule, the GI50 (XF498) was > 100 µM (inactive).
For `CCOC(=O)/C(=C/c1ccco1)P(=O)(OCC)OCC`, the GI50 (786-0) was > 100 µM (inactive), the GI50 (A498) was > 100 µM (inactive) and the GI50 (A549) was > 100 µM (inactive). The GI50 (ACHN) was > 100 µM (inactive), the GI50 (CAKI-1) was > 100 µM (inactive) and the GI50 (CCRF-CEM) was > 100 µM (inactive). The GI50 (COLO 205) was > 100 µM (inactive), the GI50 (DLD-1) was > 100 µM (inactive) and the GI50 (DMS-114) was > 100 µM (inactive). For the same molecule, the GI50 (EKVX) was > 100 µM (inactive), the GI50 (HCC 2998) was > 100 µM (inactive) and the GI50 (HCT-116) was > 100 µM (inactive). The GI50 (HCT-15) was > 100 µM, the GI50 (HL-60) was > 100 µM (inactive) and the GI50 (HOP-18) was > 100 µM (inactive). The GI50 (HOP-92) was > 100 µM (inactive), the GI50 (HT-29) was > 100 µM (inactive) and the GI50 (IGROV-1) was > 100 µM (inactive). For the same molecule, the GI50 (K562) was > 100 µM (inactive), the GI50 (KM12) was > 100 µM (inactive) and the GI50 (LOX IMVI) was > 100 µM (inactive). For the same molecule, the GI50 (LXFL 529) was > 100 µM (inactive), the GI50 (M14) was > 100 µM (inactive) and the GI50 (M19-MEL) was > 100 µM (inactive). The GI50 (MOLT-4) was > 100 µM (inactive), the GI50 (Malme-3M) was > 100 µM (inactive) and the GI50 (NCI-H226) was > 100 µM (inactive). For the same molecule, the GI50 (NCI-H23) was > 100 µM (inactive), the GI50 (NCI-H460) was > 100 µM (inactive) and the GI50 (NCI-H522) was > 100 µM (inactive). For the same molecule, the GI50 (OVCAR-4) was > 100 µM (inactive), the GI50 (OVCAR-5) was > 100 µM (inactive) and the GI50 (OVCAR-8) was > 100 µM (inactive). The GI50 (RPMI-8226) was > 100 µM (inactive), the GI50 (SF-268) was > 100 µM (inactive) and the GI50 (SF-295) was > 100 µM (inactive). The GI50 (SF-539) was > 100 µM (inactive), the GI50 (SK-MEL-28) was > 100 µM (inactive) and the GI50 (SK-MEL-2) was > 100 µM (inactive). For the same molecule, the GI50 (SK-MEL-5) was > 100 µM (inactive), the GI50 (SK-OV-3) was > 100 µM (inactive) and the GI50 (SN12C) was > 100 µM (inactive). For the same molecule, the GI50 (SNB-75) was > 100 µM (inactive), the GI50 (SNB-78) was > 100 µM (inactive) and the GI50 (SR) was > 100 µM (inactive). The GI50 (SW-620) was > 100 µM (inactive), the GI50 (TK-10) was > 100 µM (inactive) and the GI50 (U-251) was > 100 µM (inactive). For the same molecule, the GI50 (UACC-257) was > 100 µM (inactive), the GI50 (UACC-62) was > 100 µM (inactive) and the GI50 (UO-31) was > 100 µM (inactive). For the same molecule, the GI50 (XF498) was > 100 µM (inactive).
